In patent US9254262B2, “Dosage and formulation” (Almirall, S.A., priority 2008, dated 2016):

Tested on: Patients with moderate to severe stable COPD
Assay: 4-week randomized once-daily inhaled treatment in COPD patients, spirometry (FEV1) and tolerability
Type: in vivo, human
Description: Methods: Patients with moderate to severe stable COPD were randomized to receive double-blind, once-daily treatment with aclidinium (25, 50, 100, 200, or 400 μg), placebo, or open-label tiotropium 18 μg for 4 weeks. Spirometric measurements were performed at 22-24 h after the first dose and then at weekly intervals, and from 0.5-6 h post-administration on Day 1 and at Week 4 (Day 29).
Results: The ITT population included 460 patients.
Mean change from baseline in trough FEV1 on Day 29

[1] = 25-400 μg once daily for 4 weeks, COPD patients

| Compound | Mean change from baseline in trough FEV1 on Day 29 (Mean Δ) (tiotropium 18 μg once daily, open-label, 4 weeks, COPD patients, *p < 0.05 vs placebo) | Effect on ECG, laboratory parameters or adverse events [1] | Tolerability [1] | Effect on trough FEV1 on Day 29 (dose dependence) (25-400 μg once daily, ITT population 460 patients) | Bronchodilatory effect compared with open-label tiotropium 18 μg (aclidinium 200 and 400 μg) | Bronchodilatory effect during the first 6 h post-dose on Day 29 versus Day 1 (all doses) | Duration of bronchodilation (once-daily dosing, COPD patients) |
| --- | --- | --- | --- | --- | --- | --- | --- |
| C[N+]1(C)[C@@H]2C[C@@H](OC(=O)C(O)(c3cccs3)c3cccs3)C[C@H]1[C@@H]1O[C@@H]12 [Tiotropium, reference compound] | 161* ml | – | – | – | – | – | – |
| O=C(O[C@H]1C[N+]2(CCCOc3ccccc3)CCC1CC2)C(O)(c1cccs1)c1cccs1.[Br-] [Aclidinium, 3(R)-(2-hydroxy-2,2-dithien-2-ylacetoxy)-1-(3-phenoxypropyl)-1-azoniabicyclo[2.2.2]octane bromide] | – | no dose-dependent effect | well tolerated | dose-dependently increased | comparable bronchodilatory effects | comparable to that on Day 1 | sustained bronchodilation over 24 h |
